In ChEMBL document CHEMBL3507680, “University of Dundee, Gates Library screen for HepG2 cell viability”:

Experiment: Human HepG2 cell viability assay in 384 well format
Assay type: toxicity, cell-based
Parameters: dose 125 nL, time 70.5 hour; cytotoxicity at 70.5 h: concentration not given beside the values
Details: HepG2 cells, read-out: Inhibition

SMILES | cytotoxicity at 70.5 h [%]
CCNC(=O)N1CC[C@H]2CC(=O)N(CCN3CCNC3=O)CC[C@H]2C1 | -3.51
CNc1nc(C(=O)N2C[C@H]3CC[C@@H]2CN(C2CCOCC2)C3)cs1 | -10.2
Cc1cc(C(=O)N2CC[C@H]3C[C@H](c4ccncn4)O[C@@H]3C2)no1 | 12.7
CCCN1CCC(c2nc3ccc(NCc4cccnc4)cn3n2)CC1 | -10.3
COc1ncccc1NC(=O)N(Cc1ccco1)C1CC1 | -14.3
O=C(O)c1cccn1-c1ccc2c(c1)OCCO2 | -9.54
CC(=O)N1CCN([C@@H]2CC[C@@H](NC(=O)c3cncc(C)c3)[C@H]2O)CC1 | 24
Cc1cncc(C2CCN(Cc3ccc(S(C)(=O)=O)cc3)CC2)n1 | -9.92
CO[C@H]1COC[C@@H]1NC(=O)C1(Oc2ccc(Cl)cc2)CCNCC1 | -6.36
Cc1ccc(=O)n(CC(=O)N(C)Cc2csc(-c3cccs3)n2)n1 | -7.16
N#Cc1ccc(OC[C@]23COC[C@H]2CN(c2ncccn2)C3)nc1 | -7.98
COCCC(=O)N1CCC2(COCc3cnc(-c4ccccc4)nc32)C1 (stereo not drawn) | 2.54
COc1cc(N2C[C@H](C(=O)NCC3CC3)[C@@H]3CCO[C@@H]3C2)ncn1 | -11.6
CN1CCN(Cc2ccco2)Cc2cccnc21 | 0
Cc1nc(C)c(CC(=O)NCc2ccc(F)cc2F)s1 | -11.3
CC(C)c1n[nH]c(C2CN(C(=O)COc3ccc(F)cc3)CCO2)n1 (stereo not drawn) | -8.14
CC(C)Nc1n[nH]c2nc(C3CCN(C(=O)c4ccccn4)C3)ccc12 (stereo not drawn) | 8.59
Cc1c(Br)cccc1C(=O)NCC1CCCNC1 (stereo not drawn) | 2.2
Cc1noc(C)c1CN1CCOC(CNc2cccnn2)C1 (stereo not drawn) | 23.1
Cc1c(C(C)NCC2CCCC2)cnn1-c1ccc(F)cc1F (stereo not drawn) | -11.6
COCCN1CC(O)CN(C(=O)c2cccc(C(F)(F)F)c2)CC1=O (stereo not drawn) | -0.767
CC(C)Cc1cc(C(=O)N2CCC(N3CCCC3)CC2)cc(O)n1 | -12.3
Cc1cc(CN2CCN(C(=O)C(C(C)C)n3cncn3)CC2)on1 (stereo not drawn) | -10.4

SMILES | cytotoxicity at 70.5 h [%]
CCCS(=O)(=O)CC(=O)N1CCCC1c1noc(C2CC2)n1 (stereo not drawn) | -17.8
CCn1c(CN(C)C(=O)c2ccc(OC)nc2)nc2ccccc21 | -11.7
Cc1cc(C)c2c(N(C)CC3COCCO3)ncnc2n1 (stereo not drawn) | -8.16
O=c1ccc(-c2cccs2)nn1CN1CCOCC1 | -16.7
CC(C)NC(=O)Cn1cc(-c2ccccc2)cn1 | 1.95
Cc1ccc(NS(=O)(=O)c2cnn(Cc3ccccc3)c2)c(C(=O)O)c1 | -21.3
Cc1cc(C(=O)NCCN2CCN(S(C)(=O)=O)CC2)no1 | -10.9
CC(C)c1nnc2n1CCN(C(C)c1nnc(-c3cccs3)o1)C2 (stereo not drawn) | -3.01
CCc1ccc2c(c1)C(CCNC(=O)CCc1ccsc1)C(=O)N2 (stereo not drawn) | -2.26
CC(C)c1nccn1C1CCCN(C(=O)c2cnc[nH]2)C1 (stereo not drawn) | 3.72
O=C1CCC2(CCCN(C(=O)c3ccoc3)C2)CN1CCc1c[nH]cn1 (stereo not drawn) | -4.81
CNC(=O)c1cn2cc(-c3ccc(F)cc3)n(CC=C(C)C)c(=O)c2n1 | 19.4
CCOc1cc(C)nc(N2CCN(C(=O)c3cnc[nH]3)CC2)n1 | -0.152
CC(Cc1cccc(F)c1)C(=O)NS(=O)(=O)c1cnn(C)c1 (stereo not drawn) | -1.2
COCc1cncc2c1CCN(C(=O)c1ccc(C#N)cc1)C2 | -10.3
CC(C)CC(CO)NS(=O)(=O)Cc1ccon1 (stereo not drawn) | -6.44
CCN1CCN(C(=O)C2CCCc3[nH]ncc32)CC1 (stereo not drawn) | 1.54
CC(C)C(C#N)N1CCN(Cc2nccn2CC(F)(F)F)CC1 (stereo not drawn) | -10.7
Cc1cc(C)n(CC(C)NC(=O)C2(c3ccccc3F)CC2)n1 (stereo not drawn) | -7.8
O=C1N(Cc2cccc(F)c2F)CCCC1(O)CNCC1CCCCC1 (stereo not drawn) | 0.845
Cc1cnn(CCCNC(=O)C2CCCCN2Cc2cccnc2)c1 (stereo not drawn) | 0.0952
Cc1cc(N(C)Cc2cc(C)on2)n2nc(C)c(C)c2n1 | -5.61
CCCc1cc(CNc2cc(CCC)nc3ccnn23)on1 | 13.7

SMILES | cytotoxicity at 70.5 h [%]
CCC(CC)CN1CCN(CC(=O)Nc2cccc3nsnc23)CC1 | -15.1
Cc1nc(C)n(CC2CN(CCOc3ccccc3C#N)CCO2)n1 (stereo not drawn) | -8.64
CN1CCN(c2cc(CNC(=O)c3ccc(=O)[nH]n3)ccn2)CC1 | -21.2
CC(O)CN(Cc1cccc(C(=O)N(C)C)c1)c1ccccc1 (stereo not drawn) | -3.2
CS(=O)(=O)N1Cc2nccn2CC(CN2CCCC2=O)C1 (stereo not drawn) | 1.5
COc1cc(CN(C)C(=O)NCc2nccs2)ccc1SC | -6.87
Cc1cc(C(=O)N2CCCC2)ccc1NCCOCC(F)(F)F | 9.16
CC(C)C1CN(C(=O)c2ccc(C(N)=O)cc2)CCS1 (stereo not drawn) | -6
CN(CC(N)=O)C(=O)c1cnc(-c2ccc(Cl)s2)s1 | -4.25
Cc1cc(CNCC2(O)CCOCC2)ccc1Br | 4.13
CSCC(=O)N(C)Cc1cnn(-c2ccc(F)cc2)c1 | 3.1
CN(C)C(=O)c1nc2c(n1C)CCN(Cc1ccccc1)C2 | 0.767
Cc1nn(C)c(N(C)C)c1CNCC(O)COc1ccc(F)cc1 (stereo not drawn) | 2.45
Cc1cc(C)n(CC2CCCCN2C(=O)c2ccc3c(c2)COC3)n1 (stereo not drawn) | 2.1
Cc1ccc(CN2CCC3(CCC(C(=O)N(C)C)O3)CC2)o1 (stereo not drawn) | -23.2
CC(C)CC(=O)N1C[C@@H]2CCN(c3ncccn3)C[C@@H]2C1 | 42.7
Cc1cccc(-c2nc(CN3CCCCC3Cn3cncn3)no2)c1 (stereo not drawn) | -4.62
COCCNC(=O)c1cc(S(=O)(=O)N2CCCCCC2)cs1 | 15.3
O=C(CCOc1cccc(F)c1)N1CCCC(n2cncn2)C1 (stereo not drawn) | -6.87
CN1CCC2(CC1)C(=O)N(CC1CC1)c1ccccc12 | -9.7
Cc1cc(N2CCN(C(=O)c3cc(Cl)c[nH]3)CC2)nc(C)n1 | -4.7
CC(C)c1nccn1C1CCCN(C(=O)c2cnn(C)c2C2CC2)C1 (stereo not drawn) | 5.54
CC(=O)Nc1nc(C(=O)N2CCCC2Cn2cc(C)cn2)cs1 (stereo not drawn) | -10.5

SMILES | cytotoxicity at 70.5 h [%]
O=C(c1ccc(F)cc1F)N1CCN(C(=O)C2CCCCC2)CC1 | -5.82
CN1C(=O)CC[C@@H]2N(C(=O)CCc3cccnc3)CCCC[C@@]21C | -1.68
CS(=O)(=O)N1CCOC2(CCCN(c3ncc(F)cn3)C2)C1 (stereo not drawn) | -2.76
Cc1cccc(CN2C[C@@H]3CN(Cc4ccoc4)CCO[C@@H]3C2)n1 | -1.63
Cc1nc(CNC(=O)c2ccc3c(c2)nc(N2CCOCC2)n3C)cs1 | -5.03
Cc1ccc(CN2CCO[C@@H]3C[C@@H](C(=O)NC(C)C)C[C@H]32)o1 | -8.04
CN(CC1CCCCO1)c1nncc(-c2cccc(F)c2)n1 (stereo not drawn) | -3.62
O=c1c2ccccc2nnn1CN(CC1CCOC1)C1CC1 (stereo not drawn) | -2.98
CC(C)c1nc(CN2CCN(C(=O)Cc3ccccc3Cl)CC2)no1 | -1.7
Cc1n[nH]c2c1C(c1cccnc1)SCC(=O)N2 (stereo not drawn) | -13.5
COc1cccc(OCCc2cncc(C(N)=O)c2)c1 | -9.46
O=c1c2cccnc2cnn1CC(O)c1cccc(C(F)(F)F)c1 (stereo not drawn) | 11.1
N#Cc1ccc(F)c(CN2CCc3sccc3C2)c1 | -5.04
O=C(NCc1ccc(N2CC=CC2)cc1)Nc1nnc(C2CC2)s1 | 22.1
Cc1ccc(S(=O)(=O)N2CCC3(CC(C(=O)NC4CCC4)=NO3)C2)cc1 (stereo not drawn) | 18.4
COc1ccccc1Oc1ncccc1CNC(=O)[C@H](C)O | -6.71
CN(C)C[C@@H]1C[C@@H]2CN(c3ncc(F)cn3)CC[C@@H]2N1C | -3.26
O=c1[nH]c2c(c(=O)n1C1CCCCC1)CCC2Nc1ccccn1 (stereo not drawn) | 20.1
CC(C)(C)C(=O)N1CCC(c2nc(O)cc(-c3ccncc3)n2)CC1 | -1.05
CC(C)(C)CC(=O)NS(=O)(=O)c1ccc(C#N)cc1C(F)(F)F | 13.5
CCc1cc(NC2CCN(S(C)(=O)=O)CC2)n2nc(C)c(C)c2n1 | -1.04
CNC(=O)NC(C)c1nc(-c2ccc(Br)cc2)no1 (stereo not drawn) | 9.87
CCc1nc(CNC(=O)Nc2nc(COC)cs2)cs1 | -5.86

SMILES | cytotoxicity at 70.5 h [%]
Cc1cc(O)nc(C2CCN(C(=O)CO)CC2)n1 | -3.54
Cc1ccc(-c2cc(C(=O)N(C)Cc3noc4c3CCCC4)[nH]n2)o1 | 43.8
CCOCc1cnc2n1CCN(Cc1cccs1)C2C (stereo not drawn) | -8.03
CC(c1ccccc1Cl)N(C)Cc1nc2c(cnn2C)c(=O)[nH]1 (stereo not drawn) | -2.36
CCc1ccc(-c2ncc3c(n2)N(C)CCN(CCN(C)C)C3=O)cc1 | -5.02
Cc1nc(NCCSc2ccccn2)c2c(C)noc2n1 | -4.96
CCC(CC)Cn1ncc(N2CCOCC2)cc1=O | -1.42
c1ccc(CN2C[C@@H]3CCCO[C@@H]3[C@H](Nc3ccccn3)C2)nc1 | -7.21
COC(=O)[C@H](C)NC(=O)Cc1c(C)nc2cc(=O)[nH]n2c1C | -7.8
Cc1ccn(Cc2nc(CC(C)C)no2)c(=O)c1 | -6.72
Cn1cc(C2CCCN2c2ncnc3[nH]ccc23)cn1 (stereo not drawn) | 5.41
COc1ccc2c(c1)c(C(=O)Nc1nnn[nH]1)cn2C(C)C | 24.1
CCOCCCC(=O)NCc1cn2cc(Br)ccc2n1 | -3.96
COc1cccc(CN2CC(=O)N(c3ccccc3C)CC2C)c1OC (stereo not drawn) | -6.78
Clc1ccc(OCCc2cc(C3CCN(c4ncccn4)C3)n[nH]2)cc1 (stereo not drawn) | 0.0716
O=C1CCCC2=C1C(c1cc(Cl)ccc1F)Nc1nonc1N2 (stereo not drawn) | 9.69
CS(=O)(=O)N[C@@H]1CN(C(=O)c2cc3ccccc3s2)C[C@H]1O | 19
CSc1ccc(C(O)CNS(=O)(=O)C2CC2)cc1 (stereo not drawn) | 2.97
Cn1nnnc1SC1CCCN(c2ccccc2Cl)C1=O (stereo not drawn) | -1.81
CN1CC(c2n[nH]c(=O)n2-c2cccc(Cl)c2)CC1=O (stereo not drawn) | -12.8
CC(C)[C@H](N)C(=O)N1CCSc2ccccc2C1 | -3.37
